Source: publication PMC5385487, “Structural insights into the production of 3-hydroxypropionic acid by aldehyde dehydrogenase from Azospirillum brasilense” (Scientific Reports, 2017)

Experiments:
[1] = molecular target: T1, AbKGSADH (α-ketoglutarate-semialdehyde dehydrogenase) (Azospirillum brasilense, UniProt Q1JUP4); assay: X-ray crystal structure, […] Å in Table […] ([…] Å in text); settings: NAD-binding site between N- and C-terminal domains
T1 construct: gene araE; Met1-Val481 modelled; tetramer about 200 kDa

[2] = molecular target: the molecule itself; assay: crystal structure; apo-form and complex with NAD+; space group P4(3)22, two molecules in the asymmetric unit, tetramer generated by crystallographic two-fold symmetry; crystals from 16% PEG 3350, 0.1 M sodium cacodylate pH 6.5, 0.2 M MgCl2, 295 K

## NC(=O)c1ccc[n+]([C@@H]2O[C@H](COP(=O)(O)OP(=O)(O)OC[C@H]3O[C@@H](n4cnc5c(N)ncnc54)[C@H](O)[C@@H]3O)[C@@H](O)[C@H]2O)c1 [NAD^+]
[1]
  X-ray crystal structure, 2.30 Å in Table 1 (2.6 Å in text): determined the crystal structure of the protein in complex with NAD^+

B1: α-ketoglutarate-semialdehyde dehydrogenase from Azospirillum basilensis (AbKGSADH) (enzyme, UniProt Q1JUP4 1-481, looked up)
chain: MANVTYTDTQLLIDGEWVDAASGKTIDVVNPATGKPIGRVAHAGIADLDRALAAAQSGFEAWRKVPAHERAATMRKAAALVRERADAIAQLMTQEQGKPLTEARVEVLSAADIIEWFADEGRRVYGRIVPPRNLGAQQTVVKEPVGPVAAFTPWNFPVNQVVRKLSAALATGCSFLVKAPEETPASPAALLRAFVDAGVPAGVIGLVYGDPAEISSYLIPHPVIRKVTFTGSTPVGKQLASLAGLHMKRATMELGGHAPVIVAEDADVALAVKAAGGAKFRNAGQVCISPTRFLVHNSIRDEFTRALVKHAEGLKVGNGLEEGTTLGALANPRRLTAMASVIDNARKVGASIETGGERIGSEGNFFAPTVIANVPLDADVFNNEPFGPVAAIRGFDKLEEAIAEANRLPFGLAGYAFTRSFANVHLLTQRLEVGMLWINQPATPWPEMPFGGVKDSGYGSEGGPEALEPYLVTKSVTVMAV
notes: α-ketoglutarate-semialdehyde dehydrogenase (KGSADH) of the alternative L-arabinose pathway, Azospirillum brasilense; the limits Met1 and Val481 are those of the domains told for the crystal structure; The vector adds a 6xHis tag and an rTEV protease site at the N-terminus; no cleavage step is described; also called aldehyde dehydrogenase from Azospirillum brasilense; 3-HP producing ALDH; source: …
[2]
  stoichiometry N: 4
